Test results from patent publication US20180250306A1, “ALDEHYDE CONJUGATES AND USES THEREOF” (ALDEYRA THERAPEUTICS, INC., priority 2015, published 2018).

Assays:
[1] = Aldehyde adduct formation over time (product HPLC peak); details: for Formation of Product, ranking, 7 Hours / Formation of Product, ranking, 23 Hours: rank from most effective (1) to least
Method: It is not possible to conclude if this is the result of poor dissociation (from cyclodextrin) or poor interaction with the aldehyde. Best fit lines over this period give excellent fit to data. […] It can be used to relatively rank each of the samples examined, including NS2. The data were first evaluated over a 7 h time window.

[2] = Consumption of 4HNE over time (HPLC, 254 nm); details: for Consumption of 4HNE, ranking, 7 Hours / Consumption of 4HNE, ranking, 23 Hours: rank from most effective (1) to least; for Consumption of 4HNE, ranking, 23 Hours: ranks 1-4 essentially identical; for decrease in HNE relative to corresponding increase in adduct: 1 week time period
Excerpt: 5 of 6 samples show consumption of 4HNE. One sample (2-(3-aminoquinolin-2-yl)propan-2-ol) overlaps 4HNE HPLC peak using current method. Best fit lines over this period give poorer fit to data than product formation data. Rate of 4HNE consumption can be used as an approximation of binding kinetics. […] The data were used to rank relatively each of the samples examined, including NS-2 but excluding 2-(3-aminoquinolin-2-yl)propan-2-ol.

SMILES | Gradient of product HPLC peak increase (rate of adduct formation) ([1]; 7 h time window) | Gradient of product HPLC peak increase (rate of adduct formation) ([1]; 23 h time window) | Formation of Product, ranking, 7 Hours [1] | Formation of Product, ranking, 23 Hours [1] | Gradient of 4HNE consumption ([2]; 23 h) | Gradient of 4HNE consumption ([2]; first 7 h, analysis at 254 nm) | Consumption of 4HNE, ranking, 7 Hours [2] | Consumption of 4HNE, ranking, 23 Hours [2] | decrease in HNE relative to corresponding increase in adduct [2]
CC(C)(O)c1nc2cccc(Cl)c2cc1N [2-(3-amino-5-chloroquinolin-2yl)propan-2-ol] | (Gradient 0.86, | (Gradient 0.44, | 6 | 6 | (Gradient −0.04, | (Gradient −0.05, | 3 | 2 | –
CC(C)(O)c1nc2ccc(Br)cc2cc1N [2-(3-amino-6-bromoquinolin-2-yl)propan-2-ol] | (Gradient 1.63, | (Gradient 1.16, | 4 | 4 | (Gradient −0.04, | (Gradient −0.04, | 4 | 4 | –
CC(C)(O)c1nc2cc(Cl)ccc2cc1N [2-(3-amino-7-chloroquinolin-2-yl)propan-2-ol] | (Gradient 2.02, | (Gradient 1.21, | 3 | 3 | (Gradient −0.05, | (Gradient −0.06, | 2 | 1 | greater
CC(C)(O)c1nc2c(Cl)cccc2cc1N [2-(3-amino-8-chloroquinolin-2-yl)propan-2-ol] | (Gradient 1.18, | (Gradient 0.81, | 5 | 5 | (Gradient −0.02, | (Gradient −0.01, | 5 | 5 | greater
CC(C)(O)c1nc2ccccc2cc1N [2-(3-aminoquinolin-2-yl)propan-2-ol] | (Gradient 3.68, | (Gradient 1.99, | 1 | 1 | – | – | – | – | –
